Read-outs that look alike come from different tables or passages of the source.
System: Methicillin-resistant Staphylococcus aureus
Settings: 0.005% PHMB versus no PHMB
Description: This Example utilized 1.5-milliliter tubes containing a 1-milliliter blend of phosphate-buffered saline (pH 7.2) and 5% (w/v) bovine serum albumin soil. The tubes were placed in electric heat blocks set for 22° C., 30° C., 40° C. and 50° C., respectively. The tubes remained in the electric heat blocks for approximately 10 minutes.
After 10 minutes, 0.005% (by weight) active polyhexamehtylene biguanide (PHMB) (commercially available as Cosmocil® CQ from Arch Biocides, Inc., United Kingdom) was added to two tubes at each temperature level. Duplicate tubes without PHMB at each temperature were also made.
The tubes were then vortexed and Methicillin-resistant Staphylococcus aureus (approximately 1×10^5 colony forming units (CFU)) was then added to each tube. All of the tubes were then placed back into the heat blocks at their respective temperatures.
Following a 10-minute contact time, 0.1 milliliters of each sample was transferred to 0.9 milliliters letheen broth to neutralize the PHMB activity. The letheen samples were then plated in duplicate on Tryptic Soy agar plates using a WASP2 spiral plater (commercially available from Don Whitley Scientific, Ltd., Yorkshire, United Kingdom). The plates were inverted and incubated at 37±2° C. for 48 hours.
After 48 hours, the plates were evaluated using a total plate count to determine the biocidal efficacy of each sample.

polyhexamethylene biguanide [PHMB]
LOG10 Reduction (22° C.): 2.1
LOG10 Reduction (30° C.): 2.8
LOG10 Reduction (40° C.): 3.5
LOG10 Reduction (50° C.): >3.5

— patent publication US20070202185A1, “Microencapsulated Delivery Vehicles Having Fugitive Layers” (KIMBERLY-CLARK WORLDWIDE, INC., priority 2005, published 2007)
